Data as given in US20130102081A1, “Detection and Characterization of Protein Degradation, Protein Degradation Modulation and Protein Degradation Modulators” (priority 2011, published 2013).

Target: T1, trypsin (Bos taurus, UniProt P00760)
T1 construct: gene PRSS1
T1 sequence (P00760 24-246): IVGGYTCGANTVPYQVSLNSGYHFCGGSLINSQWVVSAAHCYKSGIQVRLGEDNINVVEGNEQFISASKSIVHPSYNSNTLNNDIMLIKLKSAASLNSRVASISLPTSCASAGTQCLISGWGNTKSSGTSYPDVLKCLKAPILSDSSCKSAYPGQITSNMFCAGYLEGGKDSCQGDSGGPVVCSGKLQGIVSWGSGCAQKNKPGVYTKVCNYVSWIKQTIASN
Experiment: EMR spectroscopy of spin-labeled BSA degradation by the protease trypsin, with and without modulators
Format: biochemical
Conditions: EMR peak height versus time, compared with protease alone
Text: The spin label is attached to a protein and the control or un-degraded protein EMR spectrum recorded. Degradation of the protein by any degradation mechanism creates products with predictably different angular mobility than that of the control. […] Degradation is further characterized through quantitative analysis of the product and reactant subpopulations. Modulation of that degradation, regardless of the mechanism of modulation, can be expressed in a variety of ways, only one of which is an alteration in concentration of the degradation subpopulations. For example, inhibition of degradation is expressed by a reduction in concentration of relatively mobile subpopulation(s), degradation promotion by an increase in the mobile subpopulation. Chemical, biochemical and biological entities are readily tested for their potential as modulators.
Shown are EMR spectra of spin-labeled bovine serum albumin (BSA, spin label attached to BSA under conditions which favor attachment to a sulfhydryl). Key features of the intact protein's spectrum are denoted by the numbers 1 and 5. At 7, 21 and 40 minutes (spectra 2, 3 and 4 respectively) following the addition of the protease, trypsin, a second, more mobile, product population appears, characterized by three, relatively sharp peaks superimposed on the spectrum of the intact protein. Protein degradation is clearly expressed with products expressing more rapid angular mobility than reactants. Both reactant and product subpopulations are apparent in the spectra with the growth of the product population matched by a concomitant loss of reactants. Subpopulation spectra are amenable to further analyses in accord with practices associated with the selected observation method.
Shown are four EMR spectra (6, 7, 8, 9) for conditions identical to those in FIG. 1 of 5 with the exception that trypsin inhibitor is present. The presence and action of the modulator is clear and unambiguous.
Shown is the concentration of products, as reflected in the heights of the rightmost peaks labeled 1, 2, 3, and 4 in FIG. 1 of 5, versus time. […]

Row | Compound | modulation of protein degradation (time course of appearance of the mobile product subpopulation)
1 | CC(C)C[C@H](NC(=O)[C@@H](NC(=O)N[C@@H](Cc1ccccc1)C(=O)O)[C@@H]1CCN=C(N)N1)C(=O)N[C@H](C=O)Cc1ccccc1 [chymostatin] | Modulation of protein degradation is clear
2 | Cc1c(O)cccc1C(=O)N[C@@H](CSc1ccccc1)[C@H](O)CN1C[C@H]2CCCC[C@H]2C[C@H]1C(=O)NC(C)(C)C [Nelfinavir] | promotion of degradation
3 | leupeptin hemisulfate | Modulation of protein degradation is clear
